# Source: patent publication US20220112445A1 (priority 2019, published 2022)
# Read-outs that look alike come from different tables or passages of the source.
# What was measured:
# [1] = system: Bacillus subtilis subsp. globigii; conditions: cited from earlier work
# [2] = system: Bacillus subtilis spores; conditions: 20 mg/I hydrogen peroxide for 60 minutes; cited from earlier work
# [3] = system: Bacillus spores; conditions: cited from earlier work
# [4] = system: Bacillus spores
# Method: Other embodiments of the treatment formula were also tested using varying amounts of hydrogen peroxide.
smiles,measurement,setting,value
"OO [H2O2, hydrogen peroxide]",effectiveness against Bacillus subtilis subsp. globigii,[1]; 10% hydrogen peroxide at room temperature,ineffective
same,concentration required for the destruction of these spores,[1]; high temperature (80° C.),35%
same,kill of Bacillus subtilis spores,[2],no kill
same,concentration exponent,"[3]; 25° C., levels of between 10 and 20% (w/v)",about 1.5
same,bactericidal / sporicidal activity,[3]; concentration of 6% (w/vol),"bactericidal, but only slowly sporicidal"
same,Spore Survival 5 Minutes,"[4]; 0.285 Percent H2O2, 5 minutes after mixing",Excellent
same,Spore Survival 2 Hours,"[4]; 0.285 Percent H2O2, 2 hours after mixing",Excellent
same,Spore Survival 4 Hours,"[4]; 0.285 Percent H2O2, 4 hours after mixing",Excellent
same,Spore Survival 6 Hours,"[4]; 0.285 Percent H2O2, 6 hours after mixing",Excellent
same,Spore Survival 24 Hours,"[4]; 0.285 Percent H2O2, 24 hours after mixing",Excellent
same,Spore Survival 5 Minutes,"[4]; 0.71 Percent H2O2, 5 minutes after mixing",Excellent
same,Spore Survival 2 Hours,"[4]; 0.71 Percent H2O2, 2 hours after mixing",Good
same,Spore Survival 4 Hours,"[4]; 0.71 Percent H2O2, 4 hours after mixing",Fair
same,Spore Survival 6 Hours,"[4]; 0.71 Percent H2O2, 6 hours after mixing",Fair
same,Spore Survival 24 Hours,"[4]; 0.71 Percent H2O2, 24 hours after mixing",Poor
same,spore viability,[4]; 1.43% hydrogen peroxide level,not viable
same,Spore Survival 5 Minutes,"[4]; 1.43 Percent H2O2, 5 minutes after mixing",0
same,Spore Survival 2 Hours,"[4]; 1.43 Percent H2O2, 2 hours after mixing",0
same,Spore Survival 4 Hours,"[4]; 1.43 Percent H2O2, 4 hours after mixing",0
same,Spore Survival 6 Hours,"[4]; 1.43 Percent H2O2, 6 hours after mixing",0
same,Spore Survival 24 Hours,"[4]; 1.43 Percent H2O2, 24 hours after mixing",0
